Data from patent US12070455B2, “Thienopyrrole compounds” (Gilead Sciences, Inc., priority 2021, dated 2024).

What was measured:
TLR8 = target: T1, TLR8 (Homo sapiens, UniProt Q9NR97); experiment: TLR8 human peripheral blood mononuclear cell (PBMC) cell-based assay; conditions: human PBMCs; 1 h with antagonist, then TLR8 agonist Compound A 800 nM for 6 h; cytokines (TNFa and IL12p40) in supernatant; read-out: TLR-8 EC50
T1 construct: Human peripheral blood mononuclear cells (PBMCs) consist of lymphocytes, monocytes and dendritic cells that express TLR7, TLR8 and TLR9; endogenous in cells; host or cells: cryopreserved human PBMCs from healthy donors
T1 sequence (Q9NR97 27-1041): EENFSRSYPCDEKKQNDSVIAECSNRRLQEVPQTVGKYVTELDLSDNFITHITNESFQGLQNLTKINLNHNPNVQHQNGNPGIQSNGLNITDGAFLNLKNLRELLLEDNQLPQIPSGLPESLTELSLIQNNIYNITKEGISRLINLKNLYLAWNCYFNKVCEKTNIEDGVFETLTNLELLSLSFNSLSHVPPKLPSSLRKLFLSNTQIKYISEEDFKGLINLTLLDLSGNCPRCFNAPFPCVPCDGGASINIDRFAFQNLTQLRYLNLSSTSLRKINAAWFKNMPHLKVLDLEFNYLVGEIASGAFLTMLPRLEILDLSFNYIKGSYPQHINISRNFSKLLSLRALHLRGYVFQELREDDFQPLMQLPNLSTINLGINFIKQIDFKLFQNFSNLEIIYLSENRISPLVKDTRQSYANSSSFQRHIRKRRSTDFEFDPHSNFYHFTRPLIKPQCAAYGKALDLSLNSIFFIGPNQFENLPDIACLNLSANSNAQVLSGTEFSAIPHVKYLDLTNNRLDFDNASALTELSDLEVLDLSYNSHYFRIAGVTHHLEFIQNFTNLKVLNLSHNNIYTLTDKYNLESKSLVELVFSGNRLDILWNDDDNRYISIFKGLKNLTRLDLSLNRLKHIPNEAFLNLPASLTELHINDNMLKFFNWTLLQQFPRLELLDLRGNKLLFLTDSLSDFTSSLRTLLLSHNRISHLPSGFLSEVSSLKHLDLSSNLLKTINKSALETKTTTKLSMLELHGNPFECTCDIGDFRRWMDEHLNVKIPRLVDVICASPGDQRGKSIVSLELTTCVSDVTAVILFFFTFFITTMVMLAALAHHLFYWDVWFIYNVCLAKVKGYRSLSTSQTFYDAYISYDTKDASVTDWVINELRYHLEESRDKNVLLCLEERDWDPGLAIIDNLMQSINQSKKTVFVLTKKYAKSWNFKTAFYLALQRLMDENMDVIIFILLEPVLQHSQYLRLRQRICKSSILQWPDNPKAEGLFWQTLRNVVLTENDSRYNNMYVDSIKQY
Protocol: TLR8 Human Peripheral Blood Mononuclear Cell (PBMC) Cell-Based Assay
Cryopreserved human PBMCs from healthy donors were thawed and resuspended in RPMI-1640 media with L-glutamine (Corning) supplemented with 10% Fetal Bovine Serum (Hyclone) and 1× Penicillin-Streptomycin (Corning). After counting, the cell density was adjusted to 2 million cells/ml and incubated for 1 hour at 37° C., 5% CO2 for recovery. Following the recovery, the cells were plated by adding 50 μl per well (100,000 cells) to 384-well cell culture plates (Greiner) containing 250 nl of test antagonists in 100% DMSO per well, in a 10 points dose response in quadruplicates. PBMCs were incubated in the presence of antagonists for one hour at 37° C., 5% CO2 before being stimulated with TLR8 agonist. Compound A (Gilead Sciences, U.S. Pat. No. 10,285,990) was used as the TLR8 agonist at a final concentration of 800 nM. PBMCs were incubated in the presence of antagonist and the TLR8 agonist for an additional 6 hours at 37° C., 5% CO2. At the end of the incubation, the cell culture plates were centrifuged at 500 g for 5 min, and the cell culture supernatant was collected. The level of cytokines (TNFa and IL12p40) in the supernatant was measured by electrochemiluminescence immunoassays (Mesoscale Discovery) following manufacturer's recommended protocols. The level of cytokine measured was plotted against the antagonist concentration and fitted to a sigmoidal function to determine the EC50, which are shown below in Table 6.

TLR7 = target: T2, TLR7 (Homo sapiens, UniProt Q9NYK1); experiment: TLR7 human peripheral blood mononuclear cell (PBMC) cell-based assay; conditions: human PBMCs; 1 h with test antagonist, then TLR7 agonist GS-986 400 nM for 6 h; cytokines (IL-6 and IFNα) in supernatant; read-out: TLR-7 EC50
T2 construct: Human peripheral blood mononuclear cells (PBMCs) consist of lymphocytes, monocytes and dendritic cells that express TLR7, TLR8 and TLR9; endogenous in cells; host or cells: cryopreserved human PBMCs from healthy donors
T2 sequence (Q9NYK1 27-1049): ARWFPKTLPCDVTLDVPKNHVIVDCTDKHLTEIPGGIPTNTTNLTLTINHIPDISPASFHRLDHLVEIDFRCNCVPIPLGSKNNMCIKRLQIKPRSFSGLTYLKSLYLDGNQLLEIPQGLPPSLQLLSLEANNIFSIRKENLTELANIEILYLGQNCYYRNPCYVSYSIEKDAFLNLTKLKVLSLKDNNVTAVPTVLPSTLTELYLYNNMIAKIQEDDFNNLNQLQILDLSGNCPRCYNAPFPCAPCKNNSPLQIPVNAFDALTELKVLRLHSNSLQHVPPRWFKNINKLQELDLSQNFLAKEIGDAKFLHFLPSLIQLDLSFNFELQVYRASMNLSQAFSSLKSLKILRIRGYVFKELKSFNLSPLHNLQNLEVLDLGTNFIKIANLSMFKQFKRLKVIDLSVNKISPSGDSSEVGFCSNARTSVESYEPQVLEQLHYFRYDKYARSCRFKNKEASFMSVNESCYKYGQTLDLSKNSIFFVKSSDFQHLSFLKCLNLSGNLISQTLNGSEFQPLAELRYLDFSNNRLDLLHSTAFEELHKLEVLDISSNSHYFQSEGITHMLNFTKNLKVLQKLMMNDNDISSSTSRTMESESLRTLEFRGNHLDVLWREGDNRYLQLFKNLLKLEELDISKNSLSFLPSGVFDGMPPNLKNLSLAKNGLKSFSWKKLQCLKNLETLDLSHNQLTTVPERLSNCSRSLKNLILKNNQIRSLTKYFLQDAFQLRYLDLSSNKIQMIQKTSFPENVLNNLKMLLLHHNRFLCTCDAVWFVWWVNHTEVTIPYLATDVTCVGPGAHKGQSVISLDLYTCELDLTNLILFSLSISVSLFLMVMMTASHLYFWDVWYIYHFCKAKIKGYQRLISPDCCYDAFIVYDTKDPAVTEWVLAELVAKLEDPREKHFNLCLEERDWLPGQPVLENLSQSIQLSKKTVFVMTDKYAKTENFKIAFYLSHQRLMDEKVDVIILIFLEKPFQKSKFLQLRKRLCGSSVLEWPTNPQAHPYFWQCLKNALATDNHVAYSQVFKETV
Description: TLR7/9 Human Peripheral Blood Mononuclear Cell (PBMC) Cell-Based Assay
Human peripheral blood mononuclear cells (PBMCs) consist of lymphocytes, monocytes and dendritic cells that express TLR7, TLR8 and TLR9. These cells respond to TLR7, TLR8 and TLR9 ligand stimulation and produce cytokines and chemokines in vitro and in vivo. Human PBMCs are therefore suitable to be used in a cell-based assay to assess the in vitro potency of a TLR 7, 8, and/or 9 antagonist.
Cryopreserved human PBMCs from healthy donors were thawed and resuspended in RPMI-1640 media with L-glutamine (Corning) supplemented with 10% Fetal Bovine Serum (Hyclone) and 1× Penicillin-Streptomycin (Corning). After counting, the cell density was adjusted to 2 million cells/ml and incubated for 1 hour at 37° C., 5% CO2 for recovery. Following the recovery, the cells were plated by adding 50 μl per well (100,000 cells) to 384-well cell culture plates (Greiner) containing 250 nl of test antagonists in 100% DMSO per well, in a 10 points dose response in quadruplicates. PBMCs were incubated in the presence of test antagonists for one hour at 37° C., 5% CO2 before being stimulated with a TLR7 or TLR9 agonist. GS-986 (Gilead Sciences) was used as the TLR7 agonist at a final concentration of 400 nM. ODN-2216 (InvivoGen) was used as the TLR9 agonist at a final concentration of 3 μM. PBMCs were incubated in the presence of the test antagonist and the TLR7 (or TLR9) agonist for an additional 6 hours at 37° C., 5% CO2. At the end of the incubation, the cell culture plates were centrifuged at 500 g for 5 min, and the cell culture supernatant was collected. The level of cytokines (IL-6 and IFNα) in the supernatant was measured by electrochemiluminescence immunoassays (Mesoscale Discovery) following manufacturer's recommended protocols. The level of cytokine measured was plotted against the test antagonist concentration and fitted to a sigmoidal function to determine the EC50, which are shown below in Table 6.

| EC50 (TLR8) [nM] | EC50 (TLR7) [nM] | Compound |
| --- | --- | --- |
| 1.89 | 0.11 | Cc1c(C2CCNCC2)sc2[nH]c(-c3cn4ncnc4c4c3CCC4)c(C(C)C)c12 [Example 1, 5-(8,9-dihydro-7H-cyclopenta[c][1,2,4]triazolo[1,5-a]pyridin-6-yl)-4-isopropyl-3-methyl-2-(piperidin-4-yl)-6H-thieno[2,3-b]pyrrole] |
| 3.94 | 0.95 | Cc1c(C2CC3CCC(C2)N3)sc2[nH]c(-c3cn4ncnc4c4c3CCC4)c(C(C)C)c12 (centres unmarked) [Example 2] |
| 0.31 | 0.77 | Cc1c(C2C[C@@H]3C[C@H]2CN3)sc2[nH]c(-c3cn4ncnc4c4c3CCC4)c(C(C)C)c12 (some centres unmarked) [Example 3] |
| 1.76 | 0.23 | Cc1c(C23CCNCC2C3)sc2[nH]c(-c3cn4ncnc4c4c3CCC4)c(C(C)C)c12 (centres unmarked) [Example 5, 2-(3-azabicyclo[4.1.0]heptan-6-yl)-5-(8,9-dihydro-7H-cyclopenta[c][1,2,4]triazolo[1,5-a]pyridin-6-yl)-4-isopropyl-3-methyl-6H-thieno[2,3-b]pyrrole] |
| 3.06 | 0.35 | Cc1c(C2CCN(CC(N)=O)CC2)sc2[nH]c(-c3cn4ncnc4c4c3CCC4)c(C(C)C)c12 [Example 6, 2-(4-(5-(8,9-dihydro-7H-cyclopenta[c][1,2,4]triazolo[1,5-a]pyridin-6-yl)-4-isopropyl-3-methyl-6H-thieno[2,3-b]pyrrol-2-yl)piperidin-1-yl)acetamide] |
| 3.91 | 0.78 | Cc1c(C2CC3CCC(C2)N3CC(N)=O)sc2[nH]c(-c3cn4ncnc4c4c3CCC4)c(C(C)C)c12 (centres unmarked) [Example 7] |
| 0.14 | 0.69 | Cc1c(C2C[C@@H]3C[C@H]2CN3CC(N)=O)sc2[nH]c(-c3cn4ncnc4c4c3CCC4)c(C(C)C)c12 (some centres unmarked) [Example 8] |
| 0.32 | 1.17 | Cc1c(C2CC3(CCN(CC(N)=O)C3)C2)sc2[nH]c(-c3cn4ncnc4c4c3CCC4)c(C(C)C)c12 (centres unmarked) [Example 9] |
| 15.3 | 0.26 | Cc1c(C23CCN(CC(N)=O)CC2C3)sc2[nH]c(-c3cn4ncnc4c4c3CCC4)c(C(C)C)c12 (centres unmarked) [Example 10] |
| 4.7 | 0.32 | Cc1c(C2CCN(S(=O)(=O)N3CCNCC3)CC2)sc2[nH]c(-c3cn4ncnc4c4c3CCC4)c(C(C)C)c12 [Example 11, 5-(8,9-dihydro-7H-cyclopenta[c][1,2,4]triazolo[1,5-a]pyridin-6-yl)-4-isopropyl-3-methyl-2-(1-(piperazin-1-ylsulfonyl)piperidin-4-yl)-6H-thieno[2,3-b]pyrrole] |
| 4.74 | 6.08 | Cc1c(C2CCN(CC3(C)COC3)CC2)sc2[nH]c(-c3cn4ncnc4c4c3CCC4)c(C(C)C)c12 [Example 12, 5-(8,9-dihydro-7H-cyclopenta[c][1,2,4]triazolo[1,5-a]pyridin-6-yl)-4-isopropyl-3-methyl-2-(1-((3-methyloxetan-3-yl)methyl)piperidin-4-yl)-6H-thieno[2,3-b]pyrrole] |
| 5.84 | 1.44 | Cc1c(C2CCN(Cc3ccn(C)n3)CC2)sc2[nH]c(-c3cn4ncnc4c4c3CCC4)c(C(C)C)c12 [Example 13] |
| 4.87 | 0.58 | Cc1c(C2CCN(C(=O)[C@H]3COCCN3)CC2)sc2[nH]c(-c3cn4ncnc4c4c3CCC4)c(C(C)C)c12 [Example 14, (R)-(4-(5-(8,9-dihydro-7H-cyclopenta[c][1,2,4]triazolo[1,5-a]pyridin-6-yl)-4-isopropyl-3-methyl-6H-thieno[2,3-b]pyrrol-2-yl)piperidin-1-yl)(morpholin-3-yl)methanone] |
| 5.26 | 0.29 | Cc1c(C2CCN(C(=O)[C@@H]3COCCN3)CC2)sc2[nH]c(-c3cn4ncnc4c4c3CCC4)c(C(C)C)c12 [Example 15] |
| 12.5 | 1.46 | Cc1c(C2CCN(C(=O)[C@H]3C[C@@H](F)CN3)CC2)sc2[nH]c(-c3cn4ncnc4c4c3CCC4)c(C(C)C)c12 [Example 16] |
| 15.2 | 0.68 | Cc1c(C2CCN(C(=O)[C@H]3C[C@H](F)CN3)CC2)sc2[nH]c(-c3cn4ncnc4c4c3CCC4)c(C(C)C)c12 [Example 17] |
